Data from article PMC8406304, “Inhibiting Type VI Secretion System Activity with a Biomimetic Peptide Designed To Target the Baseplate Wedge Complex” (mBio, 2021).
Several values for one entry are separate records, joined by “and”; a condition that tells them apart may be missing. Equal values may be shown once.

Tests used:
TssK = experiment: NMR peptide-TssK interaction (1H-15N HSQC, 1D 1H); format: binding, enteroaggregative Escherichia coli (EAEC)
Procedure: All NMR experiments were recorded at 300 K on a Bruker Avance-II 600 MHz spectrometer equipped with a cryoprobe at the IMM (Institut de Microbiologie de la Mediterranée) NMR platform. The 450-μl peptide sample tube was prepared at 1.8 mM in KPO4 buffer (50 mM KPO4 [pH 6.9], 150 mM NaCl) complemented with 30 μl D2O. 1D ^1H-^1H-TOCSY, ^1H-NOESY, and ^1H-^15N HSQC spectra (F2 = 2048; F1 = 128; NS = 384) (NS is the number of scans [accumulation] for the experiment; F2 is the sweep width; F1 is the Fourier number that defines the 2D spectrum dimensions and its digital resolution) were recorded using default pulse sequences as provided by the manufacturer. For the peptide-TssK interaction experiments, 200 μl of a 410 μM stock of TssK was added to the same sample tube (1.2 mM peptide and 140 μM TssK [final concentration]), and all NMR spectra were recorded with the addition of longer ^1H-^15N HSQC spectrometry (NS = 1,024). All spectra were transformed and the figures were generated using Bruker Topspin 4.0.9.

[1] = test system: TssK-TssFGE (TssKFGE wedge complex); experiment: Biolayer interferometry (BLI), TssFGE binding to biotinylated TssK; format: biochemical, enteroaggregative Escherichia coli (EAEC)
Procedure: Streptavidin-tagged TssK was purified as described above. The TssK trimer was further polished by size exclusion chromatography using a Superose 6 10/300 GL (GE Healthcare) in 50 mM HEPES (pH 7.0), 150 mM NaCl at 0.25 ml/min. For biolayer interferometry (BLI) experiments, we used high-precision Strep (SAX) biosensors from Forté Bio (number 18-5117) on the BLItz machine (Forté Bio). The trimeric ligand TssK was biotinylated using equimolar N-hydroxysuccinimide (NHS)–polyethylene glycol 4 (PEG4)–biotin (Pierce EZ-Link; 21330) in 50 mM HEPES (pH 7.0), NaCl 150 mM for 1 h at room temperature before buffer exchange in CentriPure P2 (Generon; IRL) columns against 50 mM HEPES (pH 7.0), NaCl 150 mM to remove the excess biotin. BL21(DE3) cells were used to express the interacting analytes TssG-TssF-TssE. In addition, cells containing an empty plasmid were used as a control. Cells were broken as described above, and the clarified supernatants after centrifugation for 30 min at 20,000 × g contained the control and TssFGE lysate. Streptavidin biosensors were hydrated for 10 min in HEPES buffer before binding of the biotinylated TssK. Biotinylated TssK was loaded at 1.2 μM onto the SAX biosensors for 120 s, and then the excess TssK was dissociated in HEPES buffer for 120 s. For the remaining kinetic assays, we used kinetic buffer (PBS [pH 7.3] plus 0.02% Tween 20, 0.1% bovine serum albumin [BSA], 0.05% sodium azide) (Forté Bio number 18-5032) with orbital shaking at 2,200 rpm. Kinetic buffer (KB) was used to dilute the lysates and the peptide to decrease nonspecific signals. The unbound Strep sites were blocked with 2 μM control lysate for 120 s and washed with KB for 120 s. The kinetic assays were performed using three steps with different times: baseline, 30 s; association, 120 s; and dissociation, 120 s. All the following assays were performed in triplicate. […] In the first assay, we added 47 μM lysate expressing the analytes TssG, TssF, and TssE to the bound TssK. In the second assay, we added 1 mM wild-type (WT) BCP to the bound TssK before adding 47 μM TssF-TssG-TssE. In the third assay, to validate the specificity of the WT BCP we added 1 mM mutant BCP that lacks the binding residues to the bound TssK before adding 47 μM TssF-TssG-TssE. Last, to redemonstrate the specificity of the BCP-WT, we added 1 mM randomized BCP that contains the binding residues but out of order to the bound TssK before adding 47 μM TssF-TssG-TssE.

[2] = test system: TssK-sfGFP foci in EAEC (assembled baseplates); format: cell-based, enteroaggregative Escherichia coli (EAEC)
Procedure: Fluorescence microscopy experiments were performed as previously described ([97], [98]). An overnight culture in LB of EAEC strain with a chromosomal GFP fusion to TssK was diluted 1/200 in SIM medium and grown at 37°C until the culture reached an A600 of ∼0.8. Ten optical density units (ODU) was pelleted for 10 min at 3,500 × g, resuspended at 1 ODU/ml in the same SIM medium supplemented with 0.8 M NaCl, and equilibrated for 1 h at room temperature. Cells were pelleted for 10 min at 3,500 × g, resuspended in 100 μl of classical SIM without NaCl supplemented with 1 mM peptide of buffer, and incubated for 20 min at room temperature. Cells were diluted in classical SIM medium at 0.4 ODU/ml and incubated at 37°C 160 rpm until the absorbance again reached ∼0.8. Ten ODU was harvested and resuspended in fresh SIM medium. Cell mixtures were spotted on a thin pad of SIM medium supplemented with 2% agarose, covered with a coverslip, and incubated for 20 to 30 min at room temperature before microscopy acquisition. Fluorescence microscopy was performed with a Nikon Eclipse Ti2 microscope equipped with a 100× objective (numerical aperture, 1.45), an Orca-Fusion digital camera (Hamamatsu), and a perfect focus system (PFS) to automatically maintain focus so that the point of interest within a specimen is kept in sharp focus at all times despite mechanical or thermal perturbations. All fluorescence images were acquired in Hilo mode using an Ilas2 TIRF module (Gataca Systems). Exposure times were typically 100 ms for phase contrast and 100 ms using the GFP channel. For image treatment, noise and background were reduced by filtering large structures down to 40 pixels in the FFT Bandpass Filter function of ImageJ ([102]). The GFP foci were automatically detected using the MicrobeJ plugin ([103]).

Substance: SRPVMG-SRPVMG-SRPVMG (head to tail) [BCP, biomimetic cyclic peptide SRPVMG-SRPVMG-SRPVMG mimicking TssG foot 1]
- 1H-15N HSQC correlations after addition of TssK (TssK; 1 part TssK to 10 parts BCP (1.2 mM peptide, 140 μM TssK), 50 mM KPO4 pH 6.9, 150 mM NaCl, 300 K): totally disappear
- 1D 1H NMR peptide peaks after addition of TssK (TssK; 1 part TssK to 10 parts BCP, pH 6.9, 300 K): strong broadening of the peptides peaks
- TssFGE binding response over time in the presence of the BCP ([1]; BLI sensogram, control lysate signal (50 μM TssFGE lysate without bound TssK) subtracted, three independent experiments): decreasing binding response over time
- maximum binding average response of TssFGE to TssK at 150 s in presence of peptide ([1]; BLI, 47 μM TssFGE lysate, TssK preincubated with 1 mM peptide, kinetic buffer pH 7.3, mean ± SD of three independent assays, listed as wild-type BCP): 0.121 ± 0.010 nm and 0.121 ± 0.0102 nm
- interference with TssKFGE formation ([1]; BLI, 1 mM peptide, in words): significatively interferes with the TssKFGE formation
- time of maximum effect after peptide entry ([2]; 1 mM): within the first hour after peptide entry
- increase in proportion of bacteria with no observable TssK-sfGFP foci ([2]; 1 mM peptide, hypo-osmotic shock (osmoporation), vs peptide-free treated cells, ∼500 cells per condition, triplicate): ~30%
- number of fluorescent TssK-sfGFP foci ([2]; 1 mM peptide, hypo-osmotic shock, in words, ∼500 cells per condition, triplicate): decreased TssK-sfGFP foci compared to both control peptides
- TssK-GFP foci without osmotic shock ([2]; BCP, cells without osmotic shock, compared to cells without peptide): comparable to those without peptide
- requirement of hypo-osmotic shock for entry into cells ([2]; EAEC TssK-GFP, SIM medium, NaCl-induced hypo-osmotic shock): mandatory for BCP entry into cells
